Results on 9 molecules are retold here after BindingDB's records for PubMed 34146913 (National Institute of Pharmaceutical Education and Research …, 2021).

pIC50, pKd: −log10 of the molar value.

One test is described as follows: Inhibition of DC-SIGN extracellular domain (unknown origin) by SPR analysis. In general terms: Surface plasmon resonance follows binding to a sensor surface in real time, without labels.
A word on the pKd: it is the negative decadic logarithm of the Kd, by convention in mol/L. Higher therefore signals a low Kd. `N=c1c(C(=O)NCCc2cn3c(n2)SCC3)cnc2sccn12` gave a pKd of 3.40.
As to `O=C(NCCc1c[nH]c2ccccc12)c1c(O)nc2sccn2c1=O`, the pKd was 3.74.

A further test in a line: Inhibition of DC-SIGN extracellular domain (unknown origin) expressed in Escherichia coli DE3(BL21) incubated for 1 hrs in presence of Man-Fl-BSA by high-throughput fluorescence-based assay.
As usually defined, the pIC50 is −log10 of the IC50, conventionally taken in molar units. With `CCC(=O)Nc1nc(C)c(-c2csc(Nc3ccc(N(C)C)cc3)n2)s1`, the pIC50 was 5.80.
Consider `O=C1Nc2cc(C(=O)N3CCN(c4ccccc4)CC3)ccc2NC1CSCc1c(F)cccc1Cl` (centres undefined), for which the pIC50 was 5.14.
With `Cc1ccc(N(C)S(=O)(=O)c2ccc3[nH]cc(C(=O)N4CCN(c5ccccc5)CC4)c(=O)c3c2)cc1C`, the pIC50 was 5.21.
`COC(=O)c1ccc(-c2ccc(/C=C3\C(=O)N(c4ccc(S(N)(=O)=O)cc4)N=C3C(F)(F)F)o2)cc1`: the pIC50 is 4.49.
In the case of `CN1CCN(c2ccc(/C=C3\Sc4ccccc4C3=O)cc2[N+](=O)[O-])CC1`, the pIC50 is 5.00.
Regarding `COc1ccccc1N1CCN(C(=O)c2ccc3c(c2)NC(=O)C(CCCc2ccccc2C)N3)CC1` (centres undefined), the pIC50 was 5.36.
Regarding `NOC(=O)c1ccc(CCCC2Nc3ccc(C(=O)N4CCN(c5ncccn5)CC4)cc3NC2=O)cc1` (centres undefined), the pIC50 was 5.59.
